The subject of test [1] is West Nile virus. In words: Increase in West Nile virus NS3 protease activity up to 0.5% by spectrofluorimetry using Boc-Gly-Lys-Arg-AMC substrate relative to control.
The test system of test [2] is West Nile virus. In words: Increase in West Nile virus NS3 protease activity at =>0.01 to 0.1 % by spectrofluorimetry using Boc-Gly-Lys-Arg-AMC substrate relative to control.

Active and inactive are the calls of the source. The rule behind the calls is not given here.

Regarding `C[C@H](CCC(=O)NCCC[N+](C)(C)CCCS(=O)(=O)[O-])[C@H]1CC[C@H]2[C@@H]3[C@H](O)C[C@@H]4C[C@H](O)CC[C@]4(C)[C@H]3C[C@H](O)[C@]12C`, the outcome with West Nile virus [1] and in the test on West Nile virus [2] was inactive.

The values are drawn from ChEMBL document CHEMBL1136865, “Effects of detergents on the West Nile virus protease activity” (Bioorg Med Chem, 2009).
